# Values of other authors in patent US20200029555A1, “BIODEGRADABLE HYDROGEL TO DELIVER AQUEOUS BAIT TO CONTROL PEST ANTS” (priority 2016, published 2020).
# Assays:
# [1] = system: laboratory colonies of queens and workers; details: liquid baits 0.00001-0.005% thiamethoxam; 14-day period
# Argentine ants = details: 0.001% liquid thiamethoxam
structure (smiles),measurement,setting,value
CN1COCN(Cc2cnc(Cl)s2)/C1=N\[N+](=O)[O-] [thiamethoxam],mortality of laboratory colonies of queens and workers,[1],complete mortality
same,reduction of Argentine ants in urban settings,Argentine ants,successfully reduced
